Data published in ChEMBL document CHEMBL2375322, “Synthesis using microwave irradiation and antibacterial evaluation of new N,O-acetals and N,S-acetals derived from 2-amino-1,4-naphthoquinones” (2013).
≈ marks a conversion by molar mass, not a printed value. Calls of active or inactive are those of the source. The rule behind the calls is not given here.

Key:
Format in all cases: functional
Staphylococcus aureus [1] = assay: Antibacterial activity against methicillin-resistant Staphylococcus aureus after 18 to 24 hrs by disc diffusion assay
Staphylococcus aureus [2] = assay: Antibacterial activity against Staphylococcus aureus ATCC 25923 after 18 to 24 hrs by disc diffusion assay
Staphylococcus aureus [3] = assay: Antibacterial activity against oxacillin-resistant Staphylococcus aureus after 18 to 24 hrs by disc diffusion assay
[4] = test system: Staphylococcus haemolyticus; assay: Antibacterial activity against oxacillin-resistant Staphylococcus haemolyticus after 18 to 24 hrs by disc diffusion assay
[5] = test system: Staphylococcus epidermidis; assay: Antibacterial activity against oxacillin-resistant Staphylococcus epidermidis after 18 to 24 hrs by disc diffusion assay
Klebsiella pneumoniae [6] = assay: Antibacterial activity against Klebsiella pneumoniae after 18 to 24 hrs by disc diffusion assay
Staphylococcus aureus [7] = assay: Antibacterial activity against Staphylococcus aureus after 18 to 24 hrs by disc diffusion assay
Pseudomonas aeruginosa [8] = assay: Antibacterial activity against Pseudomonas aeruginosa after 18 to 24 hrs by disc diffusion assay
Pseudomonas aeruginosa [9] = assay: Antibacterial activity against Pseudomonas aeruginosa after 18 to 24 hrs by broth macrodilution method
Staphylococcus aureus [10] = assay: Antibacterial activity against methicillin-resistant Staphylococcus aureus after 18 to 24 hrs by broth macrodilution method
[11] = test system: Staphylococcus epidermidis; assay: Antibacterial activity against oxacillin-resistant Staphylococcus epidermidis after 18 to 24 hrs by broth macrodilution method
Staphylococcus aureus [12] = assay: Antibacterial activity against oxacillin-resistant Staphylococcus aureus after 18 to 24 hrs by broth macrodilution method
Staphylococcus aureus [13] = assay: Antibacterial activity against Staphylococcus aureus ATCC 25923 after 18 to 24 hrs by broth macrodilution method
Klebsiella pneumoniae [14] = assay: Antibacterial activity against Klebsiella pneumoniae after 18 to 24 hrs by broth macrodilution method
Staphylococcus aureus [15] = assay: Antibacterial activity against Staphylococcus aureus after 18 to 24 hrs by broth macrodilution method
[16] = test system: Staphylococcus haemolyticus; assay: Antibacterial activity against oxacillin-resistant Staphylococcus haemolyticus after 18 to 24 hrs by broth macrodilution method

SMILES | inhibition (Staphylococcus aureus [1]) | inhibition (Staphylococcus aureus [2]) | inhibition (Staphylococcus aureus [3]) | inhibition [4] | inhibition [5] | inhibition (Klebsiella pneumoniae [6]) | inhibition (Staphylococcus aureus [7]) | inhibition (Pseudomonas aeruginosa [8]) | other results
O=C1C=C(NCSc2ccccc2)C(=O)c2ccccc21 | inactive | inactive | inactive | inactive | inactive | inactive | inactive | inactive | 
CCOCNC1=CC(=O)c2ccccc2C1=O |  |  |  |  |  |  |  |  | MIC (Pseudomonas aeruginosa [9]): 128 µg/mL (≈ 554 µM); diameter of the inhibition zone (DIZ) (Staphylococcus aureus [1]): 14 mm; MIC (Staphylococcus aureus [10]): 32 µg/mL (≈ 138 µM); MIC [11]: 16 µg/mL (≈ 69.2 µM); diameter of the inhibition zone (DIZ) (Staphylococcus aureus [2]): 15 mm; MIC (Staphylococcus aureus [12]): 32 µg/mL (≈ 138 µM); diameter of the inhibition zone (DIZ) (Staphylococcus aureus [3]): 17 mm; MIC (Staphylococcus aureus [13]): 8 µg/mL (≈ 34.6 µM); MIC (Klebsiella pneumoniae [14]): ≥ 256 µg/mL; MIC (Staphylococcus aureus [15]): 4 µg/mL (≈ 17.3 µM); diameter of the inhibition zone (DIZ) [4]: 16 mm; diameter of the inhibition zone (DIZ) [5]: 10 mm; diameter of the inhibition zone (DIZ) (Klebsiella pneumoniae [6]): 0 mm; MIC [16]: 64 µg/mL (≈ 277 µM); diameter of the inhibition zone (DIZ) (Staphylococcus aureus [7]): 18 mm; diameter of the inhibition zone (DIZ) (Pseudomonas aeruginosa [8]): 14 mm
CC(C)OCNC1=CC(=O)c2ccccc2C1=O | inactive | inactive | inactive | inactive | inactive | inactive | inactive | inactive | 
CSc1ccc(SCNC2=CC(=O)c3ccccc3C2=O)cc1 | inactive | inactive | inactive | inactive | inactive | inactive | inactive | inactive | 
CN[C@H](CC(C)C)C(=O)N[C@H]1C(=O)N[C@@H](CC(N)=O)C(=O)N[C@H]2C(=O)N[C@H]3C(=O)N[C@H](C(=O)N[C@H](C(=O)O)c4cc(O)cc(O)c4-c4cc3ccc4O)[C@H](O)c3ccc(c(Cl)c3)Oc3cc2cc(c3O[C@@H]2O[C@H](CO)[C@@H](O)[C@H](O)[C@H]2O[C@H]2C[C@](C)(N)[C@H](O)[C@H](C)O2)Oc2ccc(cc2Cl)[C@H]1O [VANCOMYCIN] |  |  |  |  |  |  |  |  | diameter of the inhibition zone (DIZ) (Staphylococcus aureus [1]): 16 mm; diameter of the inhibition zone (DIZ) (Staphylococcus aureus [2]): 16 mm; diameter of the inhibition zone (DIZ) (Staphylococcus aureus [3]): 16 mm; diameter of the inhibition zone (DIZ) [4]: 16 mm; diameter of the inhibition zone (DIZ) [5]: 16 mm; MIC [16]: 2 µg/mL (≈ 1.38 µM); diameter of the inhibition zone (DIZ) (Staphylococcus aureus [7]): 16 mm
O=C(O)c1cn(C2CC2)c2cc(N3CCNCC3)c(F)cc2c1=O [CIPROFLOXACIN] |  |  |  |  |  |  |  |  | MIC (Pseudomonas aeruginosa [9]): 1 µg/mL (≈ 3.02 µM); MIC (Klebsiella pneumoniae [14]): 1 µg/mL (≈ 3.02 µM); diameter of the inhibition zone (DIZ) (Klebsiella pneumoniae [6]): 22 mm; diameter of the inhibition zone (DIZ) (Pseudomonas aeruginosa [8]): 22 mm
Cc1ccc(SCNC2=CC(=O)c3ccccc3C2=O)cc1 | inactive | inactive | inactive | inactive | inactive | inactive | inactive | inactive | 
CCCSCNC1=CC(=O)c2ccccc2C1=O | inactive | inactive | inactive | inactive | inactive | inactive | inactive | inactive | 
O=C1C=C(NCOCc2ccccc2)C(=O)c2ccccc21 | inactive | inactive | inactive | inactive | inactive | inactive | inactive | inactive | 
Cc1ccccc1SCNC1=CC(=O)c2ccccc2C1=O | inactive | inactive | inactive | inactive | inactive | inactive | inactive | inactive | 
CC1=C(NCSc2ccccc2)C(=O)c2ccccc2C1=O | inactive | inactive | inactive | inactive | inactive | inactive | inactive | inactive | 
O=C1C=C(NCSc2ccc(F)cc2)C(=O)c2ccccc21 | inactive | inactive | inactive | inactive | inactive | inactive | inactive | inactive | 
CC(C)(C)OCNC1=CC(=O)c2ccccc2C1=O | inactive | inactive | inactive | inactive | inactive | inactive | inactive | inactive | 
C#CCOCNC1=CC(=O)c2ccccc2C1=O |  |  |  |  |  |  |  |  | MIC (Pseudomonas aeruginosa [9]): 16 µg/mL (≈ 66.3 µM); diameter of the inhibition zone (DIZ) (Staphylococcus aureus [1]): 16 mm; MIC (Staphylococcus aureus [10]): 64 µg/mL (≈ 265 µM); MIC [11]: 16 µg/mL (≈ 66.3 µM); diameter of the inhibition zone (DIZ) (Staphylococcus aureus [2]): 16 mm; MIC (Staphylococcus aureus [12]): 256 µg/mL (≈ 1060 µM); diameter of the inhibition zone (DIZ) (Staphylococcus aureus [3]): 12 mm; MIC (Staphylococcus aureus [13]): 32 µg/mL (≈ 133 µM); MIC (Klebsiella pneumoniae [14]): ≥ 256 µg/mL; MIC (Staphylococcus aureus [15]): 32 µg/mL (≈ 133 µM); diameter of the inhibition zone (DIZ) [4]: 18 mm; diameter of the inhibition zone (DIZ) [5]: 10 mm; diameter of the inhibition zone (DIZ) (Klebsiella pneumoniae [6]): 0 mm; MIC [16]: 32 µg/mL (≈ 133 µM); diameter of the inhibition zone (DIZ) (Staphylococcus aureus [7]): 20 mm; diameter of the inhibition zone (DIZ) (Pseudomonas aeruginosa [8]): 18 mm
COCNC1=CC(=O)c2ccccc2C1=O |  |  |  |  |  |  |  |  | MIC (Pseudomonas aeruginosa [9]): ≥ 256 µg/mL; diameter of the inhibition zone (DIZ) (Staphylococcus aureus [1]): 16 mm; MIC (Staphylococcus aureus [10]): 16 µg/mL (≈ 73.7 µM); MIC [11]: 8 µg/mL (≈ 36.8 µM); diameter of the inhibition zone (DIZ) (Staphylococcus aureus [2]): 17 mm; MIC (Staphylococcus aureus [12]): 16 µg/mL (≈ 73.7 µM); diameter of the inhibition zone (DIZ) (Staphylococcus aureus [3]): 18 mm; MIC (Staphylococcus aureus [13]): 16 µg/mL (≈ 73.7 µM); MIC (Klebsiella pneumoniae [14]): 256 µg/mL (≈ 1180 µM); MIC (Staphylococcus aureus [15]): 16 µg/mL (≈ 73.7 µM); diameter of the inhibition zone (DIZ) [4]: 20 mm; diameter of the inhibition zone (DIZ) [5]: 14 mm; diameter of the inhibition zone (DIZ) (Klebsiella pneumoniae [6]): 17 mm; MIC [16]: 16 µg/mL (≈ 73.7 µM); diameter of the inhibition zone (DIZ) (Staphylococcus aureus [7]): 24 mm; diameter of the inhibition zone (DIZ) (Pseudomonas aeruginosa [8]): 0 mm
O=C1C=C(NCOCc2cn(-c3ccccc3)nn2)C(=O)c2ccccc21 | inactive | inactive | inactive | inactive | inactive | inactive | inactive | inactive | 
COc1ccc(SCNC2=CC(=O)c3ccccc3C2=O)cc1 | inactive | inactive | inactive | inactive | inactive | inactive | inactive | inactive | 
